# Patent publication US20230150951A1, “2,5- OR 2,6-DISUBSTITUTED HYDROQUINONE DERIVATIVES WITH AT LEAST ONE CARBOXY, SULFO OR AMIDO GROUP USEFUL AS MEDICAMENTS” (OM PHARMA SA, priority 2020, published 2023)
# Like-named read-outs stand apart in the source and are kept apart here.
# Key:
# Assay type in all cases: cell-based
# VEGFR-2 = target: T1, VEGFR-2 (Homo sapiens, UniProt P35968); experiment: VEGF-165 induced phosphorylation of VEGF-Receptor on HUVEC; conditions: HUVEC preincubated 60 min, VEGF165 25 ng/mL 2 min; read-out: VEGFR-Phosphorylation inhibition IC50
# T1 construct: endogenous in cells; host or cells: primary HUVEC
# FGF-1 = target: T2, FGF-1 (Homo sapiens, UniProt P05230); experiment: FGF-1 induced sprouting of HUVEC, spheroid-based cellular angiogenesis assay; conditions: FGF-1 25 ng/mL preincubated with compound, 24 h
# T2 construct: purchased Peprotech 100-17A
# Procedure, shortened: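 Spheroids of 400 HUVEC (passage 3–4), embedded in collagen gel, were stimulated with FGF-1, FGF-2 or VEGF-A (final 25 ng/mL) preincubated 30 min at 37°C with compound (final 1.56–100 μM).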
# IL-12p70 = experiment: Cytokine release after LPS induction on human whole blood: IL-12p70
# [1] = Homo sapiens, LPS 10 ng/ml, 18 h, read-out: Whole Blood: IL-12p70 IC50
# [2] = human whole blood, inhibition of LPS induced inflammation, read-out: IC50 IL-12p70
# T2 sequence (P05230 whole entry): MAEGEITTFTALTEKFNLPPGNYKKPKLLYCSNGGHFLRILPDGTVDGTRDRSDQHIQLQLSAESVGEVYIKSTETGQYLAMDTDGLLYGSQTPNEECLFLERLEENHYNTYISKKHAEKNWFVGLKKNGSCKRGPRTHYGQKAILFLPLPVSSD
# T1 sequence (P35968 20-1356): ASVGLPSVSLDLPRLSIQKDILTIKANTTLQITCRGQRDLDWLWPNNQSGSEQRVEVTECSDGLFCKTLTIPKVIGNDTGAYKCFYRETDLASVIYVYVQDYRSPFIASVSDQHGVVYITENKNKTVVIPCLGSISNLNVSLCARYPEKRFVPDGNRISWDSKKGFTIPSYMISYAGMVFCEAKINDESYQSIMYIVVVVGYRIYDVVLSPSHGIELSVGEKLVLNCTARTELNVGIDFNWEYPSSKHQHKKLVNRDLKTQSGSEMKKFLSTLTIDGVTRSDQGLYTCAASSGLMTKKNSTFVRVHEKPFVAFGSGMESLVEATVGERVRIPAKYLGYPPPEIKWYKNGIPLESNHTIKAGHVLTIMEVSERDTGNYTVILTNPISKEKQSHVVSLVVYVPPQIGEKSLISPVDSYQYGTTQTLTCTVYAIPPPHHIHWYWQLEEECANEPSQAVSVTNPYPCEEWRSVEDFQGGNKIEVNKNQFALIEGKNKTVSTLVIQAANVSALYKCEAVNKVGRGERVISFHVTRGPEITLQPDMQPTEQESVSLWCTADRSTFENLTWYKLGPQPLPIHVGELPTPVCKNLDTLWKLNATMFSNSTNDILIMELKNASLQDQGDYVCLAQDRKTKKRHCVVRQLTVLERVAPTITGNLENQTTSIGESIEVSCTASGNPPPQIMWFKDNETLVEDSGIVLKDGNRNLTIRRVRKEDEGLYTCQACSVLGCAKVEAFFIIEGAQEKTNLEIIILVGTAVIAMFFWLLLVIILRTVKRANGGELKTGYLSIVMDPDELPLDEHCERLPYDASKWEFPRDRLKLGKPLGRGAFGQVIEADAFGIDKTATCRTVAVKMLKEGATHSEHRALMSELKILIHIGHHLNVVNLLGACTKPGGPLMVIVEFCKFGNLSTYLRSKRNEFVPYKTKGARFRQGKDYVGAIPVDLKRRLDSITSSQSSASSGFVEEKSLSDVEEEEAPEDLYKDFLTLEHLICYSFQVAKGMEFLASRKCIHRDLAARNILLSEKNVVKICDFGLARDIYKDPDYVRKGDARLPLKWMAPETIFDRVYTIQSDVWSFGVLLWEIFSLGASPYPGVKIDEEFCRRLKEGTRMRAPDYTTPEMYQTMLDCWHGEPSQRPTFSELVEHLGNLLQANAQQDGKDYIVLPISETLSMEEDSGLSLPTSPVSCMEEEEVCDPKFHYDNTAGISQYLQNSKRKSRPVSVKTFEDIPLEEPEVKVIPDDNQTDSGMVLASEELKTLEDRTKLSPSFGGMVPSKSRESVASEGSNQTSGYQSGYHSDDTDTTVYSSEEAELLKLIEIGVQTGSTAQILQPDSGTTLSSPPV
IC50 (VEGFR-2) [µM],IC50 (FGF-1) [µM],IC50 (IL-12p70; [1]) [µM],IC50 (IL-12p70; [2]) [µM],SMILES,"IC50 (IL-12p70; Homo sapiens, 18 h, read-out: Whole Blood: IL-12p70 IC50) [µM]","IC50 (IL-12p70; Homo sapiens, read-out: IC50 IL-12p70) [µM]"
0.15,20,0.12,0.12,"O=C(O)c1cc(NC(=O)c2cc(O)c(C(=O)O)cc2O)cc(C(=O)O)c1 [Ia-015a, 5-(4-carboxy-2,5-dihydroxybenzamido)isophthalic acid]",,
0.53,36,4.23,4.23,"O=C(O)c1cc(O)cc(CSCc2cc(O)cc(C(=O)O)c2O)c1O [IVc-058a, 3-((2,5-Dihydroxy-3-carboxyphenyl)methylthiomethyl)-2,5-dihydroxybenzoic acid]",,
4.3,,37.2,37.2,"O=C(O)c1cc(O)c(CN(Cc2cc(O)c(C(=O)O)cc2O)Cc2cc(O)c(C(=O)O)cc2O)cc1O [IIIc-061a, Tris(4-carboxy-2,5-dihydroxyphenylmethyl)amine]",,
1.6,14,0.27,0.27,"O=C(O)c1cc(NC(=O)c2cc(O)c(C(=O)O)cc2O)cc(NC(=O)c2cc(O)c(C(=O)O)cc2O)c1 [Ib-010a, 3,5-bis(2,5-dihydroxy-4-carboxybenzoylamino)benzoic acid]",,
3.31,21,0.44,0.44,"O=C(O)c1cc(O)c(C(=O)Nc2ccccc2S(=O)(=O)O)cc1O [Ia-001c, 2,5-dihydroxy-4-(2-sulfophenylaminocarbonyl)benzoic acid]",,
0.71,51,0.48,0.48,O=C(O)Cc1cc(O)c(C(=O)Nc2ccccc2-c2nnn[nH]2)cc1O [IIIa-001aTz],,
,54,51.4,51.4,COC(=O)c1cc(OC(C)=O)cc(CS(=O)(=O)Cc2cc(OC(C)=O)cc(C(=O)OC)c2OC(C)=O)c1OC(C)=O [IVc-059a-E2-A4],,
2.2,≥ 200,29.1,,"O=C(Nc1ccccc1-c1nnn[nH]1)c1cc(O)c(C(=O)Nc2ccccc2-c2nnn[nH]2)cc1O [Ic-001aTz2, N1,N4-bis(2-(1H-tetrazol-5-yl)phenyl)-2,5-dihydroxyterephthalamide]",,
4.8,6.7,42,42,"O=C(O)c1cc(O)cc(CS(=O)(=O)Cc2cc(O)cc(C(=O)O)c2O)c1O [IVc-059a, 3-((2,5-Dihydroxy-3-carboxyphenyl)methylsulfonylmethyl)-2,5-dihydroxybenzoic acid]",,
1.7,30,> 100,100,"O=C(O)c1cc(O)ccc1NC(=O)c1cc(O)cc(C(=O)Nc2ccc(O)cc2C(=O)O)c1O [IIc-009a, 2-(3-(2-carboxy-4-hydroxyphenylaminocarbonyl)-2,5-dihydroxybenzamido)-5-hydroxyl benzoic acid]",,
2.25,41,1.5,1.5,"O=C(O)c1cc(O)c(C(=O)Nc2ccccc2C(=O)O)cc1O [Ia-001a, 4-(2-carboxyphenylaminocarbonyl)-2,5-dihydroxybenzoic acid]",,
0.09,26,0.84,0.84,"CCOC(=O)c1cc(NC(=O)c2cc(O)c(C(=O)OCC)cc2O)cc(NC(=O)c2cc(O)c(C(=O)OCC)cc2O)c1 [Ib-010a-E3, ethyl 3,5-bis(2,5-dihydroxy-4-ethoxycarbonylbenzoylamino)benzoate]",,
0.27,84,0.27,0.27,"O=C(O)c1ccccc1CNC(=O)c1cc(O)cc(C(=O)O)c1O [IIa-053a, 3-(2-Carboxyphenylmethylaminocarbonyl)-2,5-dihydroxybenzoic acid]",,
0.23,6.2,32.4,32.4,"O=C(O)c1cc(O)c(C(=O)Nc2ccccc2-c2nnn[nH]2)cc1O [Ia-001a-Tz, 4-(2-(1H-tetrazol-5-yl)phenyl-aminocarbonyl)-2,5-dihydroxybenzoic acid]",,
0.2,87,0.73,0.73,"CC(=O)N(Cc1cc(O)c(C(=O)O)cc1O)Cc1cc(O)c(C(=O)O)cc1O [IIIc-057a, N,N-Bis(4-carboxy-2,5-dihydroxyphenylmethyl)acetamide]",,
6.4,6.7,1.26,1.26,"O=C(O)c1cc(O)c(C(=O)Nc2ccc(-c3nnn[nH]3)cc2)cc1O [Ia-003a-Tz, 4-(4-(1H-tetrazol-5-yl)phenyl-aminocarbonyl)-2,5-dihydroxybenzoic acid]",,
1.3,17,0.5,0.5,"O=C(O)Cc1cc(O)c(C(=O)Nc2c(C(=O)O)cccc2C(=O)O)cc1O [IIIa-013a, 2-(4-(carboxymethyl)-2,5-dihydroxybenzamido)isophthalic acid]",,

SMILES,IC50 (VEGFR-2) [µM],IC50 (FGF-1) [µM],IC50 (IL-12p70; [1]) [µM],IC50 (IL-12p70; [2]) [µM],"IC50 (IL-12p70; Homo sapiens, 18 h, read-out: Whole Blood: IL-12p70 IC50) [µM]","IC50 (IL-12p70; Homo sapiens, read-out: IC50 IL-12p70) [µM]"
"O=C(O)c1cc(NC(=O)c2cc(O)c(C(=O)Nc3ccccc3-c3nnn[nH]3)cc2O)ccc1O [Ic-001a-Tz/004a, 5-(4-(2-(1H-tetrazol-5-yl)phenylaminocarbonyl)-2,5-dihydroxybenzamido)-2-hydroxy benzoic acid]",2.6,19,,,12.2,12.2
"O=C(O)c1cc(NC(=O)c2cc(O)cc(C(=O)Nc3ccc(O)c(C(=O)O)c3)c2O)ccc1O [IIc-007a, 5-(3-(3-carboxy-4-hydroxyphenylaminocarbonyl)-2,5-dihydroxybenzamido)-2-hydroxy benzoic acid]",0.44,11,3.37,3.37,,
"O=C(O)c1cc(NC(=O)c2cc(O)c(C(=O)Nc3ccc(O)c(C(=O)O)c3)cc2O)ccc1O [Ic-007a, 5-(4-(3-carboxy-4-hydroxyphenylaminocarbonyl)-2,5-dihydroxybenzamido)-2-hydroxy benzoic acid]",0.09,13,0.49,0.49,,
